In patent publication US12064420B2, “Tie-2 activators targeting the Schlemm's canal” (EyePoint Pharmaceuticals, Inc., priority 2019, dated 2024):

Legend:
[1] = test system: New Zealand White rabbits; assay: Local tolerance in rabbits (slit lamp biomicroscopy, McDonald-Shadduck scoring); assay type: in vivo, rabbit; conditions: slit lamp biomicroscopy during the study
[2] = test system: patients with moderate to severe non-proliferative diabetic retinopathy; assay: Phase 2 48-week trial: IOP after subcutaneous Compound 1 QD or BID, non-proliferative diabetic retinopathy; assay type: in vivo, human; conditions: for mean reduction in IOP compared to placebo: MMRM ANCOVA; for Week 12 IOP change from BL, mean (SD) / Week 12 IOP, mean (SD) / Week 36 IOP change from BL, mean (SD) / Week 36 IOP, mean (SD) / Week 48 IOP change from BL, mean (SD) / Week 48 IOP, mean (SD) / Week 24 IOP change from BL, mean (SD) / Week 24 IOP, mean (SD): averaged over both eyes; for Week 24 IOP change from BL, mean (SD) / Week 24 IOP, mean (SD): measured predose
Excerpt: Eligible subjects were aged 18 to 80 years with moderate to severe NPDR. The major inclusion criteria for the qualified eyes included Early Treatment Diabetic Retinopathy Study (ETDRS) Severity Score≥43 and ≤53, no evidence of central involved diabetic macular edema (DME) and ETDRS≥70 letters using the ETDRS visual acuity charts. Study eye ocular exclusion criteria included uncontrolled glaucoma defined as IOP≥30 mm Hg on maximum IOP reduction therapy. Subjects were randomized 1:1:1 to either Compound 1, 15 mg once daily (QD), Compound 1, 15 mg twice daily (BID), or placebo BID treatment groups. Subjects self-administered the masked study medication (Compound 1 or placebo) supplied as sterile pre-filled single-use syringes. Subjects visited the clinical site monthly during the 48-week treatment period. A battery of comprehensive ophthalmic evaluations including IOP assessments were conducted every 12-weeks with either applanation tonometry or Tono-Pen® and the methodology was consistent throughout the study. On Day 1 and Week 24, IOP was measured prior to dosing. IOP data were analyzed using a mixed-model repeated measures ANCOVA, with visit as the repeated measure within subject. The model included change from baseline as the dependent variable. The p-value from the model was adjusted by baseline IOP. 167 patients with moderate to severe non-proliferative diabetic retinopathy (NPDR) without diabetic macular edema (DME) and a visual acuity of 20/40 or better were enrolled in a 48-week study of the effect of Compound 1 (sodium salt) in the treatment of NPDR. The IOP was measured at baseline, and at weeks 12, 24, 36, and 48. The trial consisted of three study arms: 1) patients receiving 15 mg of Compound 1 subcutaneously BID; 2) patients receiving placebo subcutaneously QD, and 15 mg of Compound 1 subcutaneously QD; and 3) patients receiving a placebo subcutaneously BID.

[3] = test system: ocular normotensive human patients with diabetic eye disease; assay: Phase 2 trial: IOP after subcutaneous Compound 1 alone or with intravitreal ranibizumab, diabetic macular edema; assay type: in vivo; conditions: for Week 4 subject-level IOP change from BL, mean (SD) / Week 4 subject-level IOP, mean (SD) / Week 8 subject-level IOP change from BL, mean (SD) / Week 8 subject-level IOP, mean (SD) / Week 12 subject-level IOP change from BL, mean (SD) / Week 12 subject-level IOP, mean (SD): average of study eye and fellow eye
Description: IOP in patients were measured using a double-masked, parallel-group designed to assess the effects of subcutaneous (SC) Compound 1 (sodium salt) alone, or as an adjunct to intravitreal ranibizumab trial. 144 human subjects with diabetic retinopathy complicated by center-involved diabetic macular edema (DME) were randomized to 3 months of one of 3 treatments: 1) Compound 1 (15 mg) SC twice daily (BID) plus sham monthly intravitreal injection (IVT); 2) Compound 1 SC BID plus ranibizumab (0.3 mg) monthly IVT; and 3) Placebo SC BID+ranibizumab IVT. At baseline, mean age was 61.3±1.3 years; 59% of subjects were male; 82.6% had Type 2 diabetes; mean HBA1c was 7.5%±1.3%; mean best corrected visual acuity was 60.2 ETDRS letters (Snellen 20/63); and mean IOP was 15.7 mmHg±3.4. Ophthalmic safety assessments were performed at baseline and monthly during the 3-month treatment period including a single IOP measurement by applanation tonometry in both the study eye and the fellow eye at each time point. By protocol, all patients had baseline IOP<24 mmHg (ocular normotensive).
In the pre-specified safety analysis, change from baseline IOP was analyzed using a t-test (null hypothesis 0 change from baseline). The level of significance was set at 0.05. A post hoc analysis of the subject level IOP measure was the change from baseline in the average over both eyes within a subject for each timepoint. Statistical testing of each timepoint was completed using ANCOVA with baseline IOP (averaged over both eyes within a subject) as covariate. Additionally, statistical testing averaging across all timepoints was completed using a mixed-model repeated measures ANCOVA. The level of significance was set at 0.05.

[4] = week 12, listed as All Compound 1
[5] = week 12, listed as Compound 1 + Sham

SMILES: COC(=O)N[C@@H](Cc1ccccc1)C(=O)N[C@@H](Cc1ccc(NS(=O)(=O)O)cc1)c1csc(-c2cccs2)n1 [Compound 1, 4-{(S)-2-[(S)-2-(Methoxycarbonylamino)-3-phenylpropanamido]-2-[2-(thiophen-2-yl)thiazol-4-yl]ethyl}phenylsulfamic acid]
- adverse effects on local tolerance [1]: No adverse effects
- mean reduction in IOP compared to placebo ([2]; 15 mg SC BID): 1.15 mmHg
- Week 12 IOP change from BL, mean (SD) ([2]; 15 mg SC BID): −0.91 (3.20) mmHg
- Week 12 IOP, mean (SD) ([2]; 15 mg SC BID): 14.6 (2.93) mmHg
- Week 36 IOP change from BL, mean (SD) ([2]; 15 mg SC BID): −1.48 (3.48) mmHg
- Week 36 IOP, mean (SD) ([2]; 15 mg SC BID): 14.0 (2.74) mmHg
- Week 48 IOP change from BL, mean (SD) ([2]; 15 mg SC BID): −0.94 (3.00) mmHg
- Week 48 IOP, mean (SD) ([2]; 15 mg SC BID): 14.6 (2.73) mmHg
- Week 24 IOP change from BL, mean (SD) ([2]; 15 mg SC BID): −1.27 (3.31) mmHg
- Week 24 IOP, mean (SD) ([2]; 15 mg SC BID): 14.2 (2.60) mmHg
- mean reduction in IOP compared to placebo ([2]; 15 mg SC QD): 0.70 mmHg
- Week 12 IOP change from BL, mean (SD) ([2]; 15 mg SC QD): −0.56 (2.83) mmHg
- Week 12 IOP, mean (SD) ([2]; 15 mg SC QD): 15.3 (2.75) mmHg
- Week 36 IOP change from BL, mean (SD) ([2]; 15 mg SC QD): −0.94 (3.39) mmHg
- Week 36 IOP, mean (SD) ([2]; 15 mg SC QD): 14.9 (3.58) mmHg
- Week 48 IOP change from BL, mean (SD) ([2]; 15 mg SC QD): −0.72 (2.80) mmHg
- Week 48 IOP, mean (SD) ([2]; 15 mg SC QD): 15.2 (2.84) mmHg
- Week 24 IOP change from BL, mean (SD) ([2]; 15 mg SC QD): −0.56 (2.99) mmHg
- Week 24 IOP, mean (SD) ([2]; 15 mg SC QD): 15.3 (2.90) mmHg
- Week 4 subject-level IOP change from BL, mean (SD) ([3]; listed as All Compound 1): −1.2 (2.92) mmHg
- Week 4 subject-level IOP, mean (SD) ([3]; listed as All Compound 1): 14.5 (2.92) mmHg
- Week 4 subject-level IOP change from BL, mean (SD) ([3]; listed as Compound 1 + Sham): −0.8 (3.14) mmHg
- Week 4 subject-level IOP, mean (SD) ([3]; listed as Compound 1 + Sham): 14.7 (2.88) mmHg
- Week 8 subject-level IOP change from BL, mean (SD) ([3]; listed as All Compound 1): −1.3 (3.17) mmHg
- Week 8 subject-level IOP, mean (SD) ([3]; listed as All Compound 1): 14.5 (3.31) mmHg
- Week 8 subject-level IOP change from BL, mean (SD) ([3]; listed as Compound 1 + Sham): −1.1 (3.25) mmHg
- Week 8 subject-level IOP, mean (SD) ([3]; listed as Compound 1 + Sham): 14.4 (3.26) mmHg
- Week 12 subject-level IOP change from BL, mean (SD) [3, 4]: −1.3 (2.93) mmHg
- Week 12 subject-level IOP, mean (SD) [3, 4]: 14.5 (3.31) mmHg
- Week 12 subject-level IOP change from BL, mean (SD) [3, 5]: −1.4 (2.98) mmHg
- Week 12 subject-level IOP, mean (SD) [3, 5]: 14.1 (3.36) mmHg
- Week 4 IOP change from BL, mean (SD) ([3]; fellow eye (FE)): −0.8 (3.36) mmHg
- Week 8 IOP change from BL, mean (SD) ([3]; fellow eye (FE)): −1.1 (3.58) mmHg
- Week 12 IOP change from BL, mean (SD) ([3]; fellow eye (FE), week 12): −1.4 (3.29) mmHg
- Week 12 IOP, mean (SD) ([3]; fellow eye (FE), week 12): 14.0 (3.41) mmHg
- Week 4 IOP change from BL, mean (SD) ([3]; study eye (SE)): −0.8 (3.34) mmHg
- Week 8 IOP change from BL, mean (SD) ([3]; study eye (SE)): −1.1 (3.37) mmHg
- Week 12 IOP change from BL, mean (SD) ([3]; study eye (SE), week 12): −1.4 (3.16) mmHg
